# System: patients with bipolar I disorder who responded to treatment in the acute phase studies
# Assay: Study BIA-2093-205: recurrence prevention study (2-week open-label Part I, double-blind fixed dose Part II)
# Assay type: in vivo, human
# Settings: for Patient worsening status according to CGI-BP Scale: No worsening / Patient worsening status according to CGI-BP Scale: Worsening: Part II; for Patient worsening status according to CGI-BP Scale: No worsening / Patient worsening status according to CGI-BP Scale: Worsening / median time to withdrawal / patients who withdrew / proportion of patients with MADRS scores ≧18 (depressive symptomatology) / proportion of patients with YMRS scores ≧15 (manic symptomatology) / mean (SD) highest mood scores (patient e-diary, 100-point visual analogue scale) / mean (SD) overall lowest mood scores (patient e-diary, 100-point visual analogue scale): ITT; for mean (SD) highest mood scores (patient e-diary, 100-point visual analogue scale) / mean (SD) overall lowest mood scores (patient e-diary, 100-point visual analogue scale) / patients who withdrew (AE section; withdrawing because of AEs): double-blind period
# Experimental: Part I followed an open-label design in which all participants received treatment with ESL 900 mg QD for 2 weeks. Part II followed a double-blind, parallel-group, fixed multiple dose design in which participants were randomly assigned (1:1:1) to one of the following treatment groups: (1) ESL 1800 mg QD, (2) ESL 900 mg QD, and (3) ESL 300 mg QD. […] The occurrence of a new manic/depressive episode was considered a treatment failure, and the patient was discontinued from the study.
# If the patient had—in change from preceding phase scale—a score of 5, 6, or 7 in any of 3 categories (mania, depression, or overall bipolar disorder), the illness was considered to have worsened. Secondary efficacy variables included: proportion of patients developing manic symptomatology (YMRS score ≧15); proportion of patients developing depressive symptomatology (MADRS score ≧18); the highest and lowest mood state, collected in the patient diary card; and time to withdrawal. All efficacy assessments were evaluated at each study visit.
# Mood was self-evaluated in a 100-point visual analogue scale using the DiaryPRO™ software (Invivodata®, Inc.) implemented on a touch-screen device (Palm™ OS). Patients completed their training in the e-diary use in V1 and were assisted by the study staff when necessary. Data were collected and transferred from the patient's home to the study server on a daily basis.
# Medical history and demographic information was obtained at the screening visit. A complete physical and neurological examination was performed at screening, V7 or early discontinuation (EDV), V8 and post-study visit (PSV). Vital signs (pulse rate and blood pressure) were determined at every visit. […] Clinically significant abnormalities in laboratory tests, vital signs or 12-lead ECG were considered as AEs.
# Safety was evaluated based on the occurrence of AEs. AEs were documented by the investigator with reference to intensity, dates of occurrence and resolution, outcome and relation to the treatment (causality). Furthermore, each AE was classified as being serious or non-serious. All patients with AEs were followed until their resolution. AEs were coded according to the Medical Dictionary for Regulatory Activities (MedDRA).
# Proportions of patients were compared between treatment groups using a Cochran-Mantel-Haenszel (CMH) test stratified by region. […] In all analyses, if the treatment effect was significant (p<0.05) pairwise comparisons were to be performed to assess the differences.
# Changes in total YMRS, CGI-BP and MADRS scores were tested by analysis of covariance (ANCOVA) using baseline score value, region, treatment and region-by-treatment interaction as covariates; Dunnett's multiple comparison procedure was used for the comparison of the treatment means. ANCOVA was used to evaluate the change in YMRS score from baseline to the end of the 3-week treatment period, the CGI-BP score at the end of the 3-week treatment period, the MADRS score at the end of the 3-week treatment period, and the highest and lowest mood states (the mean highest and lowest score for each patient was calculated for intervals of 28 calendar days).
# Survival analysis was performed using log-rank test/Kaplan-Meier and Cox proportional hazards model.
# [1] = Part II Double-Blind Period, ESL 300 mg, n = 35
# [2] = Part II Double-Blind Period, ESL 900 mg, n = 26
# [3] = Part II Double-Blind Period, ESL 1800 mg, n = 26
structure (smiles),measurement,setting,value
"CC(=O)O[C@H]1Cc2ccccc2N(C(N)=O)c2ccccc21 [ESL, (S)-10-acetoxy-10,11-dihydro-5H-dibenz[b,f]azepine-5-carboxamide]",Patient worsening status according to CGI-BP Scale: No worsening,"ESL 300 mg QD, n = 34",26 (76.5) n (%)
same,Patient worsening status according to CGI-BP Scale: Worsening,"ESL 300 mg QD, n = 34",6 (17.6) n (%)
same,serious AE: mania,ESL 300 mg group,2 cases
same,proportion of patients who prematurely discontinued,ESL 300 mg group (n=19),54.3%
same,median time to withdrawal,ESL 300 mg group,254 days
same,patients who withdrew,ESL 300 mg group,52.9%
same,proportion of patients with MADRS scores ≧18 (depressive symptomatology),ESL 300 mg,14.7%
same,proportion of patients with YMRS scores ≧15 (manic symptomatology),ESL 300 mg,8.8%
same,"mean (SD) highest mood scores (patient e-diary, 100-point visual analogue scale)",ESL 300 mg,49.2 (11.0)
same,"mean (SD) overall lowest mood scores (patient e-diary, 100-point visual analogue scale)",ESL 300 mg,45.9 (10.4)
same,Patient worsening status according to CGI-BP Scale: No worsening,"ESL 900 mg QD, n = 25",14 (56.0) n (%)
same,Patient worsening status according to CGI-BP Scale: Worsening,"ESL 900 mg QD, n = 25",10 (40.0) n (%)
same,serious AE: anaemia,ESL 900 mg group,1 case
same,serious AE: disease progression,ESL 900 mg group,1 case
same,serious AE: oesophageal stenosis,ESL 900 mg group,1 case
same,serious AE: pneumonia,ESL 900 mg group,1 case
same,proportion of patients who prematurely discontinued,ESL 900 mg group (n=14),53.8%
same,median time to withdrawal,ESL 900 mg group,295 days
same,patients who withdrew,ESL 900 mg group,52.0%
same,proportion of patients with MADRS scores ≧18 (depressive symptomatology),ESL 900 mg,0.0%
same,proportion of patients with YMRS scores ≧15 (manic symptomatology),ESL 900 mg,16.0%
same,"mean (SD) highest mood scores (patient e-diary, 100-point visual analogue scale)",ESL 900 mg,50.6 (6.4)
same,"mean (SD) overall lowest mood scores (patient e-diary, 100-point visual analogue scale)",ESL 900 mg,47.3 (12.4)
same,Patient worsening status according to CGI-BP Scale: No worsening,"ESL 1800 mg QD, n = 26",16 (61.5) n (%)
same,Patient worsening status according to CGI-BP Scale: Worsening,"ESL 1800 mg QD, n = 26",6 (23.1) n (%)
same,serious AE: bronchitis,ESL 1800 mg group,1 case
same,serious AE: depression,ESL 1800 mg group,1 case
same,serious AE: disease progression,ESL 1800 mg group,1 case
same,proportion of patients who prematurely discontinued,ESL 1800 mg group (n=19),73.1%
same,median time to withdrawal,ESL 1800 mg group,109 days
same,patients who withdrew,ESL 1800 mg group,73.1%
same,proportion of patients with MADRS scores ≧18 (depressive symptomatology),ESL 1800 mg,11.5%
same,proportion of patients with YMRS scores ≧15 (manic symptomatology),ESL 1800 mg,19.2%
same,"mean (SD) highest mood scores (patient e-diary, 100-point visual analogue scale)",ESL 1800 mg,55.1 (10.4)
same,"mean (SD) overall lowest mood scores (patient e-diary, 100-point visual analogue scale)",ESL 1800 mg,51.1 (12.3)
same,patients who showed no worsening according to the CGI-BP scale,"ITT population, all treatment groups (300, 900, 1800 mg), no significant dose difference (p=0.250)",at least 50%
same,Any Adverse Events,"Part I Open-Label Period, ESL 900 mg, n = 104",20 (19.2) Number (%) of patients
same,Agitation,[1],2 (5.7) Number (%) of patients
same,Any Adverse Events,[1],14 (40.0) Number (%) of patients
same,Aspartate amino-transferase increased,[1],0 (0.0) Number (%) of patients
same,Blood creatine phosphokinase increased,[1],1 (2.9) Number (%) of patients
same,Bronchitis,[1],0 (0.0) Number (%) of patients
same,Depression,[1],3 (8.6) Number (%) of patients
same,Dizziness,[1],0 (0.0) Number (%) of patients
same,Mania,[1],2 (5.7) Number (%) of patients
same,Nausea,[1],0 (0.0) Number (%) of patients
same,Sinus tachycardia,[1],2 (5.7) Number (%) of patients
same,Agitation,[2],0 (0.0) Number (%) of patients
same,Any Adverse Events,[2],14 (53.8) Number (%) of patients
same,Aspartate amino-transferase increased,[2],0 (0.0) Number (%) of patients
same,Blood creatine phosphokinase increased,[2],0 (0.0) Number (%) of patients
same,Bronchitis,[2],1 (3.8) Number (%) of patients
same,Depression,[2],3 (11.5) Number (%) of patients
same,Dizziness,[2],0 (0.0) Number (%) of patients
same,Mania,[2],0 (0.0) Number (%) of patients
same,Nausea,[2],0 (0.0) Number (%) of patients
same,Sinus tachycardia,[2],1 (3.8) Number (%) of patients
same,Agitation,[3],1 (3.8) Number (%) of patients
same,Any Adverse Events,[3],18 (69.2) Number (%) of patients
same,Aspartate amino-transferase increased,[3],2 (7.7) Number (%) of patients
same,Blood creatine phosphokinase increased,[3],3 (11.5) Number (%) of patients
same,Bronchitis,[3],2 (7.7) Number (%) of patients
same,Depression,[3],1 (3.8) Number (%) of patients
same,Dizziness,[3],3 (11.5) Number (%) of patients
same,Mania,[3],0 (0.0) Number (%) of patients
same,Nausea,[3],3 (11.5) Number (%) of patients
same,Sinus tachycardia,[3],0 (0.0) Number (%) of patients
same,deaths,all treatment groups,No deaths occurred
same,patients who withdrew (AE section; withdrawing because of AEs),ESL 300 mg group (n=3),8.6%
same,patients who withdrew (AE section; withdrawing because of AEs),ESL 900 mg group (n=3),11.5%
same,patients who withdrew (AE section; withdrawing because of AEs),ESL 1800 mg group (n=1),3.8%
same,patients with AEs,"open-label period, ESL 900 mg QD (20 patients)",19.2%
same,number of AEs reported,"open-label period, ESL 900 mg QD, in 20 patients",42 AEs
same,premature discontinuation because of treatment failure,"overall (n=22), similar proportions between treatment groups",21.2%
same,patients completed 6 months of treatment,"overall, of 104 patients enrolled in Part I (n=35)",33.7%
same,incidence of treatment-related AEs,"recurrence prevention study, comparable between treatment groups",< 25 % of patient
